{"source": "patent US20030087789A1", "about": "“Emulsion containing a plant extract, method for producing said emulsion and for obtaining a plant extract” (priority 2000, published 2003)", "origin": "cited, not measured here", "key": {"Escherichia coli": {"tested_on": "Escherichia coli", "details": "intestinal Escherichia coli"}}}
{"smiles": "C=C(C)[C@@H]1CC[C@]2(CO)CC[C@]3(C)[C@H](CC[C@@H]4[C@@]5(C)CC[C@H](O)C(C)(C)[C@@H]5CC[C@]43C)[C@@H]12", "note": "[betulin]", "values": [{"measurement": "bacteriostatic and bactericidal effect", "setting": "Staphylococcus aureus", "value": "bacteriostatic and bactericidal effect"}, {"measurement": "bacteriostatic and bactericidal effect", "setting": "Shigella flexneri", "value": "bacteriostatic and bactericidal effect"}, {"measurement": "solubility in cold petroleum ether", "setting": "cold petroleum ether (C5-C8 CH)", "value": "practically insoluble"}, {"measurement": "solubility in dichloromethane, chloroform and cold organic solvents", "setting": "dichloromethane, chloroform and cold organic solvents", "value": "only slightly soluble"}, {"measurement": "solubility in pyridine and tetrahydrofuran", "setting": "pyridine and tetrahydrofuran", "value": "soluble"}, {"measurement": "solubility in water", "setting": "water", "value": "practically insoluble"}, {"measurement": "solubility in water or water-alcohol mixtures", "setting": "water or water-alcohol mixtures (up to 60% alcohol)", "value": "insoluble"}, {"measurement": "bacteriostatic and bactericidal effect", "setting": "Escherichia coli", "value": "bacteriostatic and bactericidal effect"}, {"measurement": "bacteriostatic and bactericidal effect", "setting": "Salmonella typhi", "value": "bacteriostatic and bactericidal effect"}]}
